Results reported in patent US9212146B2, “Substituted pyridazinones for the treatment of tumors” (SHANGHAI INSTITUTE OF MATERIA MEDICA, CHINESE ACADEMY OF …, priority 2008, dated 2015).

test system: human hepatoma cell line Bel-7402; experiment: SRB proliferation assay, Bel-7402; format: cell-based; settings: BEL-7402 cultivated in vitro, 72 hours, given as bounds, read-out: The Inhibition Activities for Human Liver Cancer Cells BEL-7402 (IC50)
Protocol: Protocol: the antineoplasmic activities in vitro of the compounds were assayed by a Sulforhodamine B (SRB) protocol. Tumor cells were cultivated at 37 under 5% CO2 in a RPMI 1640 medium or a DMEM medium (Gibco) containing 10% fetal bovine serum. Tumor cells were inoculated on a 96-well plate with a concentration of 0.4-1.0×10^4 cells per well according to the cell types. 24 hours later, the target compounds diluted 10 times were added, each compound having at least 5 concentrations. After treated by the compounds for 72 hours, the culture media were discarded, and the cells were fixed by 10% cold trichloroacetic acid, and then stained by Sulforhodamine B (SRB) solution. The uncombined SRB was washed off, and the SRB combined with protein was dissolved with Tris. OD values were recorded at 515 nm on an ELISA Reader, and the cell growth inhibition rate was calculated according to following equation: Inhibition rate=(ODcontrol−ODexperimental)/ODcontrol×100%
IC50 (50% inhibitory concentration) was calculated by using Logit method based on the inhibition rates at various concentration, and the results are shown in tables 1 and 2.
The following cell lines were used: human hepatocarcinoma cell line […]; ovarian cancer cell line SK-OV-3; human breast cancer cell line MDA-MB-231; human renal carcinoma cell line A498; colon adenocarcinoma cell line HT-29; non-small cell lung cancer cell line NCI-H460; lung adenocarcinoma cell line A549; human colon cancer cell line SW-620; human hepatoma cell line Bel-7402; human breast carcinoma cell line SK-BR-3; and human umbilical vein endothelial cells (HUVEC).

SMILES	IC50
O=c1ccc(-c2ccc(NC3CCCCC3)c(C(F)(F)F)c2)n[nH]1 [YHHU-757]	< 10 nM
COc1ccc(-c2ccc(=O)[nH]n2)cc1C(F)(F)F [YHHU-762]	< 10 nM
O=c1ccc(-c2ccc(NC3CCCCC3)c(C(F)(F)F)c2)n[nH]1 [YHHU-715]	< 10000 nM

same assay, conditions: Homo sapiens, BEL-7402 cultivated in vitro, 72 hours, given as bounds, read-out: The Inhibition Activities for Human Liver Cancer Cells BEL-7402 (IC50)

SMILES	IC50
O=c1ccc(-c2ccc(OCCN3CC3)c(C(F)(F)F)c2)n[nH]1 [YHHU-771]	< 100 nM
CC1CN1c1ccc(-c2ccc(=O)[nH]n2)cc1C(F)(F)F (centres unmarked) [YHHU-748]	< 10 nM

same assay, conditions: Homo sapiens, Bel-7402, 72 h, BEL-7402 cultivated in vitro, given as bounds, read-out: The Inhibition Activities for Human Liver Cancer Cells BEL-7402 (IC50)

SMILES	IC50
O=c1ccc(-c2ccc(N3CCC(O)CC3)c(C(F)(F)F)c2)n[nH]1 [YHHU-776]	< 10 nM
CCNc1ccc(-c2ccc(=O)[nH]n2)cc1C(F)(F)F [YHHU-744]	< 10 nM
O=c1ccc(-c2ccc(N3CCC(O)C3)c(C(F)(F)F)c2)n[nH]1 (centres unmarked) [YHHU-766]	< 100 nM
CN(C)[C@H]1CCN(c2ccc(-c3ccc(=O)[nH]n3)cc2C(F)(F)F)C1 [YHHU-676]	< 10 nM
O=C1CSC(=S)N1c1ccc(-c2ccc(=O)[nH]n2)cc1C(F)(F)F [YHHU-668]	< 1000 nM
CC(C)N(c1ccc(-c2ccc(=O)[nH]n2)cc1C(F)(F)F)C(C)C [YHHU-688]	< 10 nM
O=c1ccc(-c2ccc(NC3CCCCC3O)c(C(F)(F)F)c2)n[nH]1 (centres unmarked) [YHHU-716]	< 10000 nM
CN(C)CCNc1ccc(-c2ccc(=O)[nH]n2)cc1C(F)(F)F [YHHU-745]	> 1000 nM
O=c1ccc(-c2ccc(-n3ccnc3)c(C(F)(F)F)c2)n[nH]1 [YHHU-706]	< 10000 nM
CN(CCO)c1ccc(-c2ccc(=O)[nH]n2)cc1C(F)(F)F [YHHU-681]	< 1000 nM
CN(C)COc1ccc(-c2ccc(=O)[nH]n2)cc1C(F)(F)F [YHHU-501]	< 100 nM
O=c1ccc(-c2ccc(OC3CCCCCC3)c(C(F)(F)F)c2)n[nH]1 [YHHU-598]	< 100 nM
O=c1ccc(-c2ccc(OCCN3CCCC3)c(C(F)(F)F)c2)n[nH]1 [YHHU-770]	< 100 nM
O=c1ccc(-c2ccc(O)c(C(F)(F)F)c2)n[nH]1 [YHHU-580]	< 100 nM
O=c1ccc(-c2ccc(CCN3CCCCC3)c(C(F)(F)F)c2)n[nH]1 [YHHU-575]	< 100 nM
CC(C)Nc1ccc(-c2ccc(=O)[nH]n2)cc1C(F)(F)F [YHHU-761]	< 10 nM
O=c1ccc(-c2ccc(OCCC(F)(F)F)c(C(F)(F)F)c2)n[nH]1 [YHHU-586]	< 100 nM
CSc1ccc(-c2ccc(=O)[nH]n2)cc1C(F)(F)F [YHHU-694]	< 100 nM
CC(O)C1CCN(c2ccc(-c3ccc(=O)[nH]n3)cc2C(F)(F)F)CC1 (centres unmarked) [YHHU-751]	< 10 nM
O=c1ccc(-c2ccc(C(F)(F)F)c(C(F)(F)F)c2)n[nH]1 [YHHU-710]	< 10000 nM
O=c1ccc(-c2ccc(NCC3CCCCC3)c(C(F)(F)F)c2)n[nH]1 [YHHU-696]	< 100 nM
O=C(O)[C@@H]1CC(O)CN1c1ccc(-c2ccc(=O)[nH]n2)cc1C(F)(F)F (some centres unmarked) [YHHU-666]	< 1000 nM
CCOC(=O)CCNc1ccc(-c2ccc(=O)[nH]n2)cc1C(F)(F)F [YHHU-769]	< 1000 nM
O=c1ccc(-c2ccc(NC3CCCC3)c(C(F)(F)F)c2)n[nH]1 [YHHU-689]	< 100 nM
CCOC(=O)C1CCN(c2ccc(-c3ccc(=O)[nH]n3)cc2C(F)(F)F)CC1 [YHHU-693]	< 100 nM

SMILES	IC50
CCOc1ccc(-c2ccc(=O)[nH]n2)cc1C(F)(F)F [YHHU-578]	< 100 nM
CC(C)(C)OC(=O)N1CCN(c2ccc(-c3ccc(=O)[nH]n3)cc2C(F)(F)F)CC1 [YHHU-678]	< 10 nM
O=c1ccc(-c2ccc(OC34CC5CCC(C3)C(C5)C4)c(C(F)(F)F)c2)n[nH]1 (centres unmarked) [YHHU-592]	< 100 nM
O=c1ccc(-c2ccc(-c3ccccc3)c(C(F)(F)F)c2)n[nH]1 [YHHU-703]	< 10000 nM
O=c1ccc(-c2ccc(CO)c(C(F)(F)F)c2)n[nH]1 [YHHU-574]	< 100 nM
O=c1ccc(-c2ccc(OC3CCCC3)c(C(F)(F)F)c2)n[nH]1 [YHHU-503]	< 100 nM
Cc1ccc(Sc2ccc(-c3ccc(=O)[nH]n3)cc2C(F)(F)F)cc1 [YHHU-717]	> 1000 nM
O=c1ccc(-c2ccc(N3CCCCCC3)c(C(F)(F)F)c2)n[nH]1 [YHHU-747]	< 10 nM
O=C1CCC(=O)N1c1ccc(-c2ccc(=O)[nH]n2)cc1C(F)(F)F [YHHU-673]	< 1000 nM
C[C@@H]1CN(c2ccc(-c3ccc(=O)[nH]n3)cc2C(F)(F)F)CCN1 [YHHU-682]	< 10 nM
O=c1ccc(-c2ccc(SCCO)c(C(F)(F)F)c2)n[nH]1 [YHHU-700]	< 10000 nM
CCOC(=O)C1CCCN1c1ccc(-c2ccc(=O)[nH]n2)cc1C(F)(F)F (centres unmarked) [YHHU-768]	< 100 nM
CC(C)CCOc1ccc(-c2ccc(=O)[nH]n2)cc1C(F)(F)F [YHHU-772]	< 100 nM
CCSc1ccc(-c2ccc(=O)[nH]n2)cc1C(F)(F)F [YHHU-589]	< 100 nM
O=c1ccc(-c2ccc(NC3CCCC(O)C3)c(C(F)(F)F)c2)n[nH]1 (centres unmarked) [YHHU-712]	< 1000 nM
O=c1ccc(-c2ccc(N3CCCCC3CO)c(C(F)(F)F)c2)n[nH]1 (centres unmarked) [YHHU-763]	< 100 nM
O=c1ccc(-c2ccc(NCc3ccccc3)c(C(F)(F)F)c2)n[nH]1 [YHHU-659]	< 100 nM
O=c1ccc(-c2ccc(N3CCNCC3)c(C(F)(F)F)c2)n[nH]1 [YHHU-677]	< 100 nM
CC(Oc1ccc(-c2ccc(=O)[nH]n2)cc1C(F)(F)F)N1CCCCC1 (centres unmarked) [YHHU-597]	< 100 nM
O=c1ccc(-c2ccc(N3CCCC(O)C3)c(C(F)(F)F)c2)n[nH]1 (centres unmarked) [YHHU-753]	< 100 nM
CC1CCC(C(C)C)C(Oc2ccc(-c3ccc(=O)[nH]n3)cc2C(F)(F)F)C1 (centres unmarked) [YHHU-595]	< 100 nM
C[C@@H]1CN(c2ccc(-c3ccc(=O)[nH]n3)cc2C(F)(F)F)C[C@H](C)O1 [YHHU-669]	< 10 nM
O=C1CCN(c2ccc(-c3ccc(=O)[nH]n3)cc2C(F)(F)F)CC1 [YHHU-672]	< 100 nM
O=c1ccc(-c2ccc(NC3CCC(O)CC3)c(C(F)(F)F)c2)n[nH]1 (centres unmarked) [YHHU-711]	< 1000 nM

test system: human liver cancer cells Bel-7402 transplanted tumor; experiment: not given; format: in vivo; settings: 60 mg/kg, PO, QDx16; 5 animals per group
Description: Name and lot number: YHHU-744, a white powder, lot No.: No. c001471-106; YHHU-755, a white powder, lot No.: No. c001471-102; YHHU-756, a white powder, lot No.: No. c00147-106; YHHU-759, a white powder, lot No.: No. c001471-102; YHHU-776, a white powder, lot No.: No. c001471-107. Sorafenib was used as a positive control.
Formulation: YHHU-744, YHHU-755, YHHU-756, YHHU-759, YHHU-776 and the positive control were each diluted with 0.1% Tween-80 and distilled water to a desired concentration.
BALB/cA nude mice, 6-7 weeks old, ♀, were purchased from Shanghai SLAC Laboratory Animal Co. LTD. Certificate No.: SCXK (Shanghai) 2007-0005. Habitat: SPF level.
Human liver cancer cells Bel-7402 were inoculated on nude mice subcutaneously. After the tumor grew up to 300-450 mm^3, animals were grouped randomly (d0). The tumor volume was measured 2-3 times each week and the weights of mice were recorded. The tumor volume was calculated according to as the following equation. V=½×a×b^2 wherein, a and b are length and width, respectively. […]

SMILES	Quantity of Animals Whose Tumors Vanished
CNC(=O)c1cc(Oc2ccc(NC(=O)Nc3ccc(Cl)c(C(F)(F)F)c3)cc2)ccn1 [Sorafenib, reference compound]	0

same assay, conditions: 60 mg/kg, PO, QDx16; Bel-7402 on nude mice

SMILES	Inhibition Rate (%)	Tumor Volume (mm^3)
CNC(=O)c1cc(Oc2ccc(NC(=O)Nc3ccc(Cl)c(C(F)(F)F)c3)cc2)ccn1 [Sorafenib, reference compound]	50%	279.8 mm^3

same assay, conditions: 100 mg/kg, PO, QDx11; 5 animals per group

SMILES	Quantity of Animals Whose Tumors Vanished
O=c1ccc(-c2ccc(N3CCC(O)CC3)c(C(F)(F)F)c2)n[nH]1 [YHHU-776]	5
CCNc1ccc(-c2ccc(=O)[nH]n2)cc1C(F)(F)F [YHHU-744]	4

same assay, conditions: 100 mg/kg, PO, QDx11; Bel-7402 on nude mice

SMILES	Inhibition Rate (%)	Tumor Volume (mm^3)
O=c1ccc(-c2ccc(N3CCC(O)CC3)c(C(F)(F)F)c2)n[nH]1 [YHHU-776]	100%	338.2 mm^3
CCNc1ccc(-c2ccc(=O)[nH]n2)cc1C(F)(F)F [YHHU-744]	98%	343.7 mm^3

same assay, conditions: at the 11th day; intragastrically once a day for 11 days

SMILES	tumors vanished (animals/group)
O=c1ccc(-c2ccc(N3CCC(O)CC3)c(C(F)(F)F)c2)n[nH]1 [YHHU-776]	5/5
CCNc1ccc(-c2ccc(=O)[nH]n2)cc1C(F)(F)F [YHHU-744]	4/5

same assay, conditions: at the end of the experiment (17th day)

SMILES	recrudescence of tumors
O=c1ccc(-c2ccc(N3CCC(O)CC3)c(C(F)(F)F)c2)n[nH]1 [YHHU-776]	no recrudescence was observed

same assay, conditions: intragastrically once a day for 11 days, nude mice

SMILES	toxicity / survivability of mice
O=c1ccc(-c2ccc(N3CCC(O)CC3)c(C(F)(F)F)c2)n[nH]1 [YHHU-776]	no significant toxicity was observed
CCNc1ccc(-c2ccc(=O)[nH]n2)cc1C(F)(F)F [YHHU-744]	no significant toxicity was observed
